Patent US8754038B2, “Template-fixed peptidomimetics with CCR10 antagonistic activity” (priority 2009, dated 2014)
Numbered stars: 1 amine (or outer) side, 2 acyl side, 3 side chain; on linkers, the order of the positions; unused ones are H or OH. Square brackets hold non-standard residues; d marks the D form. Side chains are listed from the residue outwards. Peptide text beside a SMILES is read from it. * marks the point of attachment. X4 = N#Cc1cccc(C[C@@H]2C[C@@H](C(=O)[*:2])N([*:1])C2)c1; Pro(trans-4-cHex) = O=C(O)[C@@H]1C[C@@H](C2CCCCC2)CN1; X1 = O=C([C@@H]1C[C@@H](Cc2ccc(Br)cc2)CN1[*:1])[*:2]; Phe(4-CF3) = N[C@@H](Cc1ccc(C(F)(F)F)cc1)C(=O)O; X7 = O=C([C@H](CCNCc1c[nH]cn1)N[*:1])[*:2]; Oic = O=C(O)[C@@H]1C[C@@H]2CCCC[C@@H]2N1; Phe(4-CN) = N#Cc1ccc(C[C@H](N)C(=O)O)cc1; X13 = CC1(C)CC[C@@H](C(=O)[*:2])N1[*:1]; Phe(4-F) = N[C@@H](Cc1ccc(F)cc1)C(=O)O; cisHyp = O=C(O)[C@@H]1C[C@H](O)CN1; Hyp = O=C(O)[C@@H]1C[C@@H](O)CN1; MeOCH2CH2OCH2CO = COCCOCC(=O)*; N(Me)CH2CH2OMe = COCCN(C)*; Thz = O=C(O)[C@@H]1CSCN1; Ac5c = NC1(C(=O)O)CCCC1; Dab = NCC[C@H](N)C(=O)O; X8 = Cn1cncc1CCC(=O)*; CO = O=C([*:1])[*:2]; NHCH2CH2OMe = COCCN*; Bn = c1ccc(C*)cc1; Ms = CS(=O)(=O)*

Experiments:
human CCR10 [1] = target: T1, human CCR10 (Homo sapiens, UniProt P46092); assay: Chemotaxis assay (CCR10-transfected 300-19 cells, CCL27 gradient); format: cell-based; conditions: CCR10-transfected 300-19 murine pre-B cells; 30 nM CCL27 gradient
T1 construct: expressed in transfected cells
T1 sequence (P46092 1-362): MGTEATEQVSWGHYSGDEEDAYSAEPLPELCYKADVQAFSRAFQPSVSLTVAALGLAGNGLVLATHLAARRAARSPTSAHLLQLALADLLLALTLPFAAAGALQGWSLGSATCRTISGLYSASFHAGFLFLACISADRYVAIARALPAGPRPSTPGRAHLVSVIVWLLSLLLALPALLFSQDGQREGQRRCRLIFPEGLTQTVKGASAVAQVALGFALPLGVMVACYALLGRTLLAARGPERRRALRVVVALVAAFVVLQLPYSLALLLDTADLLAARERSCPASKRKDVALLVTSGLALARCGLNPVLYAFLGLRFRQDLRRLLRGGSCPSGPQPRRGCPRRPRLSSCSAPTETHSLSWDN
Description: (§1) Lyophilized peptides were weighed on a Microbalance (Mettler MX5) and dissolved in aqueous 90% DMSO to a final concentration of 10 mM unless otherwise stated. Stock solutions were kept at +4° C., and protected from light.
(§2) Peptides were assayed for CCR10 antagonism in a calcium flux assay and in a chemotaxis assay using a mouse pre-B cell line 300-19 stably transfected with human CCR10, and with human CCL27 as agonist.
The chemotactic response of CCR10-transfected 300-19 murine pre-B cells to a gradient of CCL27 (CTACK) was measured using disposable Transwell® assay plates from Costar (5 μm pore size) according to the protocol of the manufacturer. Briefly, cells were grown under sterile conditions at 37° C. with 5% CO2 in flasks containing RPMI+5% FCS, glutamine, penicillin/streptomycin (all media components were from Life Technologies) and the appropriate selection antibiotics (Puromycin, G418 or Tetracycline). For the assay, cells were pelleted by centrifugation, washed once in Dulbecco's phosphate buffered saline (DPBS), and resuspended to give 1×10^6 cells/ml in RPMI+0.5% bovine serum albumin (BSA). 100 μl of cell suspension was applied to the top of the assay filter. The β-hairpin peptidomimetics, diluted in the same assay medium, were added to both top and bottom chambers. The cells were allowed to migrate for 4-6 hours at 37° C. into the bottom chamber of the assay plate containing 30 nM of CCL27 (RnD systems). Migrated cells were counted using a FACS cytometer (Cytomics FC500, Beckman Coulter). Data normalization was performed using the number of any cells that had migrated in the absence of the β-hairpin peptidomimetic and the number of cells that have randomly migrated in absence of CCL27 [these values were taken as 100% (no inhibitory activity) and 0%, respectively]. From a range of compound concentrations IC50 were determined using Prism5 (GraphPad software).

human CCR10 [2] = target: T1, human CCR10; assay: Calcium flux assay (CCR10 antagonism, CCL27 as agonist); format: cell-based; conditions: CCR10 transfected 300-19 murine pre-B cells; CCL27 30 nM
Description: as §1, §2
The calcium flux release was assessed using CCR10 transfected 300-19 murine pre-B cells. These cells were labeled as a batch with Calcium4 Reagent (Molecular Devices, Sunnyvale, Calif.) in HBSS buffer for 60 min.
After dispensing 8×10^4 cells in each well of a 384-well black plate, a concentrated solution of the β-hairpin peptidomimetics of this invention in HBSS+0.1% BSA+0.1% DMSO (final concentration) was added to the cells. The entire plate was centrifuged and placed in a Flexstation II (Molecular Devices) automated plate reader. After reading a 20 s baseline, the Flexstation dispensed CCL27 (RnD systems) at a final concentration of 30 nM in HBSS+0.1% BSA onto the cells and calcium flux was measured for an additional 70 s.
Alternatively a FIipR384 (Molecular Devices) was used for read out of the 384-well plates. In this case about 8×10^4 cells were placed in each well, centrifuged, placed in the FlipR and after 5 s of baseline reading, the β-hairpin peptidomimetics in HBSS+0.1% BSA+0.1% DMSO (final concentration) were added. After an incubation time of 5 min, the CCL27 solution was added to the mixture and the calcium flux was measured for 200 s.
The maximum signal was determined from control wells without inhibitor. Percentage of inhibition was calculated from a range of compound concentrations, which were subsequently used to calculate IC50 values (Softmax Pro, Molecular Devices). All steps were carried out at room temperature.

| IC50 (human CCR10 [1]) [nM] | IC50 (human CCR10 [2]) [nM] | Structure (SMILES) |
| --- | --- | --- |
| 60.1 | 260 ± 154 | NCC[C@@H]1NC(=O)[C@H](Cc2c[nH]c3ccccc23)NC(=O)C2(CCCC2)NC(=O)[C@H](Cc2c[nH]c3ccccc23)NC(=O)[C@@H]2C[C@H](OCc3ccccc3)CN2C(=O)[C@H]2CCCN2C1=O [Ex. 51, cyclo(-Trp-Cyp-Trp-Dab-^DPro-(4S)-Hyp(Bn)-)] (cyclo([Ac5c]W[Dab][dP][cisHyp](Bn)W)) |
| 19.6 | 134 ± 73.3 | NCC[C@@H]1NC(=O)[C@H](Cc2c[nH]c3ccccc23)NC(=O)C2(CCCC2)NC(=O)[C@H](Cc2c[nH]c3ccccc23)NC(=O)[C@@H]2CSCN2C(=O)[C@H]2CCCN2C1=O [compound 6, cyclo(-Trp-Cyp-Trp-Dab-^DPro-Thz-)] (cyclo([Ac5c]W[Dab][dP][Thz]W)) |
| 9 | 15.8 ± 10.3 | NCC[C@@H]1NC(=O)[C@H](Cc2c[nH]c3ccccc23)NC(=O)C2(CCCC2)NC(=O)[C@H](Cc2c[nH]c3ccccc23)NC(=O)[C@@H]2C[C@@H](Cc3ccc(Br)cc3)CN2C(=O)[C@H]2CCCN2C1=O [compound 39, cyclo(-Trp-Cyp-Trp-Dab-^DPro-Pro((4R)4BrBn)-)] (cyclo([Ac5c]W[Dab][dP][X1]W)) |
| 3.8 | 27.9 ± 10.5 | N#Cc1cccc(C[C@@H]2C[C@H]3C(=O)N[C@@H](Cc4c[nH]c5ccccc45)C(=O)NC4(CCCC4)C(=O)N[C@@H](Cc4c[nH]c5ccccc45)C(=O)N[C@@H](CCN)C(=O)N4CCC[C@@H]4C(=O)N3C2)c1 [compound 40, cyclo(-Trp-Cyp-Trp-Dab-^DPro-Pro((4R)3CNBn)-)] (cyclo([Ac5c]W[Dab][dP][X4]W)) |
| 140 | 54.3 ± 22 | NCC[C@@H]1NC(=O)[C@H](Cc2c[nH]c3ccccc23)NC(=O)C2(CCCC2)NC(=O)[C@H](Cc2c[nH]c3ccccc23)NC(=O)[C@@H]2C[C@@H](C3CCCCC3)CN2C(=O)[C@H]2CCCN2C1=O [compound 41, cyclo(-Trp-Cyp-Trp-Dab-^DPro-Pro((4S)cHex)-)] (cyclo([Ac5c]W[Dab][dP][Pro(trans-4-cHex)]W)) |
| 14.2 | 82.5 ± 30.4 | CC1(C)CC[C@H]2C(=O)N[C@@H](Cc3c[nH]c4ccccc34)C(=O)NC3(CCCC3)C(=O)N[C@@H](Cc3c[nH]c4ccccc34)C(=O)N[C@@H](CCN)C(=O)N3CCC[C@@H]3C(=O)N21 [compound 42, cyclo(-Trp-Cyp-Trp-Dab-^DPro-Pro(5,5Me2)-)] (cyclo(W[Ac5c]W[Dab][dP][X13])) |
| 13.5 | 1.9 ± 2.1 | N#Cc1ccc(C[C@@H]2NC(=O)[C@@H]3C[C@@H](OCc4ccccc4)CN3C(=O)[C@H]3CCCN3C(=O)[C@H](CO)NC(=O)[C@H](Cc3ccc(F)cc3)NC(=O)C3(CCCC3)NC2=O)cc1 [compound 44, cyclo(-Phe(4CN)-Cyp-Phe(4F)-Ser-^DPro-Hyp(Bn)-)] (cyclo([Ac5c][Phe(4-F)]S[dP][Hyp](Bn)[Phe(4-CN)])) |
| 14 | 65.8 ± 19.6 | NCC[C@@H]1NC(=O)[C@H](Cc2c[nH]c3ccccc23)NC(=O)C2(CCCC2)NC(=O)[C@H](Cc2c[nH]c3ccccc23)NC(=O)[C@@H]2C[C@@H](OCc3ccccc3)CN2C(=O)[C@H]2CCCN2C1=O [compound 45, cyclo(-Trp-Cyp-Trp-Dab-^DPro-Hyp(Bn)-)] (cyclo([Ac5c]W[Dab][dP][Hyp](Bn)W)) |
| 35.4 | 12.6 ± 9 | O=C1NC2(CCCC2)C(=O)N[C@@H](Cc2c[nH]c3ccccc23)C(=O)N[C@@H](CO)C(=O)N2CCC[C@@H]2C(=O)N2C[C@H](OCc3ccccc3)C[C@H]2C(=O)N[C@H]1Cc1c[nH]c2ccccc12 [compound 46, cyclo(-Trp-Cyp-Trp-Ser-^DPro-Hyp(Bn)-)] (cyclo([Ac5c]WS[dP][Hyp](Bn)W)) |

Further lines, the molecule ahead of its results:

| Structure (SMILES) | IC50 (human CCR10 [1]) [nM] | IC50 (human CCR10 [2]) [nM] |
| --- | --- | --- |
| NCC[C@H](N)C(=O)NCC[C@@H]1NC(=O)[C@H](Cc2c[nH]c3ccccc23)NC(=O)C2(CCCC2)NC(=O)[C@H](Cc2c[nH]c3ccccc23)NC(=O)[C@@H]2C[C@@H]3CCCC[C@@H]3N2C(=O)[C@H]2CCCN2C1=O [Ex. 71, cyclo(-Trp-Cyp-Trp-Dab(Dab)-^DPro-Oic-)] (cyclo([Ac5c]W[Dab](Dab)[dP][Oic]W)) | 50.2 | 567 ± 155 |
| COCCOCC(=O)NCC[C@@H]1NC(=O)[C@H](Cc2c[nH]c3ccccc23)NC(=O)C2(CCCC2)NC(=O)[C@H](Cc2c[nH]c3ccccc23)NC(=O)[C@@H]2C[C@@H]3CCCC[C@@H]3N2C(=O)[C@H]2CCCN2C1=O [Ex. 72, cyclo(-Trp-Cyp-Trp-Dab(MEMCO)-^DPro-Oic-)] (cyclo([Ac5c]W[Dab](MeOCH2CH2OCH2CO)[dP][Oic]W)) | 11.5 | 62.8 ± 41.6 |
| COCCNC(=O)NCC[C@@H]1NC(=O)[C@H](Cc2c[nH]c3ccccc23)NC(=O)C2(CCCC2)NC(=O)[C@H](Cc2c[nH]c3ccccc23)NC(=O)[C@@H]2C[C@@H]3CCCC[C@@H]3N2C(=O)[C@H]2CCCN2C1=O [Ex. 73, cyclo(-Trp-Cyp-Trp-Dab(MeO(CH2)2NHCO)-^DPro-Oic-)] (cyclo([Ac5c]W[Dab]([CO-NHCH2CH2OMe])[dP][Oic]W)) | 5.3 | 24.2 ± 24.5 |
| COCCN(C)C(=O)NCC[C@@H]1NC(=O)[C@H](Cc2c[nH]c3ccccc23)NC(=O)C2(CCCC2)NC(=O)[C@H](Cc2c[nH]c3ccccc23)NC(=O)[C@@H]2C[C@@H]3CCCC[C@@H]3N2C(=O)[C@H]2CCCN2C1=O [Ex. 97, cyclo(-Trp-Cyp-Trp-Dab((MeO(CH2)2)(Me)NCO)-^DPro-Oic-)] (cyclo([Ac5c]W[Dab]([CO-N(Me)CH2CH2OMe])[dP][Oic]W)) | 5.6 | 8.1 ± 9.1 |
| CS(=O)(=O)NCC[C@@H]1NC(=O)[C@H](Cc2c[nH]c3ccccc23)NC(=O)C2(CCCC2)NC(=O)[C@H](Cc2c[nH]c3ccccc23)NC(=O)[C@@H]2C[C@@H]3CCCC[C@@H]3N2C(=O)[C@H]2CCCN2C1=O [Ex. 100, cyclo(-Trp-Cyp-Trp-Dab(MeSO2)-^DPro-Oic-)] (cyclo([Ac5c]W[Dab](Ms)[dP][Oic]W)) | 3.4 | 0.2 ± 0.1 |
| O=C1NC2(CCCC2)C(=O)N[C@@H](Cc2c[nH]c3ccccc23)C(=O)N[C@@H](CCNCc2c[nH]cn2)C(=O)N2CCC[C@@H]2C(=O)N2[C@@H](C[C@@H]3CCCC[C@@H]32)C(=O)N[C@H]1Cc1c[nH]c2ccccc12 [Ex. 106, cyclo(-Trp-Cyp-Trp-Dab(A55)-^DPro-Oic-)] (cyclo([Ac5c]W[X7][dP][Oic]W)) | 4.8 | 12.2 ± 3.8 |
| Cn1cncc1CCC(=O)NCC[C@@H]1NC(=O)[C@H](Cc2c[nH]c3ccccc23)NC(=O)C2(CCCC2)NC(=O)[C@H](Cc2ccc(C(F)(F)F)cc2)NC(=O)[C@@H]2C[C@@H]3CCCC[C@@H]3N2C(=O)[C@H]2CCCN2C1=O [Ex. 108, cyclo(-Phe(4CF3)-Cyp-Trp-Dab(A56)-^DPro-Oic-)] (cyclo([Ac5c]W[Dab](X8)[dP][Oic][Phe(4-CF3)])) | 2.5 | 34.5 ± 17.3 |
